The source of these data is publication PMC9285882, “A mass spectrometry‐based non‐radioactive differential radial capillary action of ligand assay (DRaCALA) to assess ligand binding to proteins” (Journal of Mass Spectrometry, 2022).

Holding throughout (type): biochemical
One assay has as its target T1, YciRFec101 (Escherichia coli, UniProt P77334).
T1 construct: gene pdeR; full-length GGDEF/EAL protein, cloned in pBAD30, expressed in E. coli Top10, whole cell lysate
The experiment in a line: DRaCALA, MALDI-TOF MS and […] read-out. As to conditions: cell lysate; 10 mM Tris pH 8.0, 100 mM NaCl, 5 mM MgCl2 (MALDI) or MgSO4 (32P); room temperature; labelled compound in 32P assay.

The target of another assay is T2, YcgR (Escherichia coli, UniProt P76010).
T2 construct: cloned in pBAD30, expressed in E. coli Top10, whole cell lysate
T2 sequence (P76010 1-244): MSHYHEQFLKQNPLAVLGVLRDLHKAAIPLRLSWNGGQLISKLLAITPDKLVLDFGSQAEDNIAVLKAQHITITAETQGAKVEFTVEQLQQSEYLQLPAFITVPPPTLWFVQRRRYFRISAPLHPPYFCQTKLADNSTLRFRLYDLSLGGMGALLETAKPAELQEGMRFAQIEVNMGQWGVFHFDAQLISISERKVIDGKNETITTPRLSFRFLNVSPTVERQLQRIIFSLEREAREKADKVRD
Briefly: DRaCALA, MALDI-TOF MS read-out. The conditions noted are these: cell lysate; 10 mM Tris pH 8.0, 100 mM NaCl, 5 mM MgCl2; room temperature.

The target of the next assay is BcsE (Escherichia coli, UniProt P37657). Briefly: DRaCALA, MALDI-TOF MS read-out. As to conditions: cell lysate; 10 mM Tris pH 8.0, 100 mM NaCl, 5 mM MgCl2; room temperature.
BcsE, sequence (P37657 whole entry): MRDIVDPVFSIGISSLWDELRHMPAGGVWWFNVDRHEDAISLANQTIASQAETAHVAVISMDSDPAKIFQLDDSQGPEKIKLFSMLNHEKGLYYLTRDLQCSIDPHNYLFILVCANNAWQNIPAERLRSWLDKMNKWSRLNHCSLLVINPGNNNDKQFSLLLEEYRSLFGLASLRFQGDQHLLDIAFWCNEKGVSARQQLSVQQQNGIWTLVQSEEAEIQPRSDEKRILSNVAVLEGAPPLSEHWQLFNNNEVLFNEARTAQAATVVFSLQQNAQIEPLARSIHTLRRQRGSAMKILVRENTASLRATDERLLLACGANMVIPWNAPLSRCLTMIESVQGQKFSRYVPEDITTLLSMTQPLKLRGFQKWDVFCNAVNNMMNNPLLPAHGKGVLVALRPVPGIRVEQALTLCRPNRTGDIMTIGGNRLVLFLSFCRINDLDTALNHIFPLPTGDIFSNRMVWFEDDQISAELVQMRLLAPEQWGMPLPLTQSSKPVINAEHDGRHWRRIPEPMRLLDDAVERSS

T1 sequence (P77334 whole entry): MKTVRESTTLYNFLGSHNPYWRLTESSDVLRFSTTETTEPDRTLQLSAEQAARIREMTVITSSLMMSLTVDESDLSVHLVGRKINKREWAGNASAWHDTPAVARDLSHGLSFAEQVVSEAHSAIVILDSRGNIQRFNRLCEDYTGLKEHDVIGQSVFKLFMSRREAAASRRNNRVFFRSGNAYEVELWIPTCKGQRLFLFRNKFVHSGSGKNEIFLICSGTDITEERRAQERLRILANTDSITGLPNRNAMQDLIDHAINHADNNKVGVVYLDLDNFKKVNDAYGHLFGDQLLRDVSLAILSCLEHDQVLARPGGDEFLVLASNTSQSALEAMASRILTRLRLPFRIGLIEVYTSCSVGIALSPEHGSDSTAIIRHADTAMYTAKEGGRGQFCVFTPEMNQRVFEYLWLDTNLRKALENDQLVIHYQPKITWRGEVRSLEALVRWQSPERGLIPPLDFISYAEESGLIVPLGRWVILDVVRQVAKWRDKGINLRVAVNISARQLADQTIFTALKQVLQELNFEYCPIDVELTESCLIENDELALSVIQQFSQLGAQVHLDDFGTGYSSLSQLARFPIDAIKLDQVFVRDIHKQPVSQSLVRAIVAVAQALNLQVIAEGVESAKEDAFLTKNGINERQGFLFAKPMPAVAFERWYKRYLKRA

With `Nc1nc2c(ncn2[C@@H]2O[C@@H]3COP(=O)(O)O[C@H]4[C@@H](O)[C@H](n5cnc6c(=O)[nH]c(N)nc65)O[C@@H]4COP(=O)(O)O[C@H]3[C@H]2O)c(=O)[nH]1` [cyclic di-GMP], the “DRaCALA, MALDI-TOF MS and 32P read-out” value on YciRFec101 was “YciRFec101 showed increased binding to c‐di‐GMP, while mut1 and mut2 were near vector control”. Moreover, the “DRaCALA, MALDI-TOF MS read-out” value on YcgR is “cell lysates expressing the cyclic di‐GMP receptors and incubated with cyclic di‐GMP showed higher counts”; on BcsE, “cell lysates expressing the cyclic di‐GMP receptors and incubated with cyclic di‐GMP showed higher counts”.
